Measurements reported in the supplement of paper PMC4862054.

Legend:
Settings in all cases: incubation time: 72 h
HCC1599 [1] = assay: normalised response (% of control), CellTox Green; higher = less cell death (100 = DMSO, 0 = benzethonium chloride kill control)
How it was run: (§1)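 Every value is a normalised signal taken at one concentration of a dilution series. Compound was placed in 384-well plates at 5 concentrations in 10-fold steps over a compound-specific 10,000-fold range, and 20 µl of breast cancer cell suspension was seeded onto it. After 72 h, CellTox Green fluorescence (485/520 nm) was measured first and CellTiter-Glo luminescence second, following 10 min at room temperature. Each plate was scaled to 0.1 % DMSO (100) and a positive kill control (0).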

CAL-51 [2] = assay: as above
How it was run: as §1

HCC1937 [3] = assay: as above
How it was run: as §1

CAL-120 [4] = assay: as above
How it was run: as §1

HDQ-P1 [5] = assay: as above
How it was run: as §1

MFM-223 [6] = assay: as above
How it was run: as §1

CAL-148 [7] = assay: as above
How it was run: as §1

MDA-MB-468 [8] = assay: as above
How it was run: as §1

HCC1143 [9] = assay: as above
How it was run: as §1

DU-4475 [10] = assay: as above
How it was run: as §1

BT-474 [11] = assay: as above
How it was run: as §1

MDA-MB-453 [12] = assay: as above
How it was run: as §1

MCF-10A [13] = assay: as above
How it was run: as §1

CAL-85-1 [14] = assay: as above
How it was run: as §1

MDA-MB-231 [15] = assay: as above
How it was run: as §1

MDA-MB-436 [16] = assay: as above
How it was run: as §1

BT-549 [17] = assay: as above
How it was run: as §1

Hs578T [18] = assay: as above
How it was run: as §1

HCC1599 [19] = assay: normalised response (% of control), CellTiter-Glo; higher = more viable cells (100 = DMSO, 0 = benzethonium chloride kill control)
Method: (§2)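 DSRT, 72 h incubation, CellTox Green / CellTiter-Glo readout. Signal is normalised to DMSO and benzethonium chloride controls. Value is the normalised response at dose 3.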

CAL-51 [20] = assay: as above
Method: as §2

HCC1937 [21] = assay: as above
Method: as §2

CAL-120 [22] = assay: as above
Method: as §2

HDQ-P1 [23] = assay: as above
Method: as §2

MFM-223 [24] = assay: as above
Method: as §2

CAL-148 [25] = assay: as above
Method: as §2

MDA-MB-468 [26] = assay: as above
Method: as §2

HCC1143 [27] = assay: as above
Method: as §2

SK-BR-3 = assay: as above
Method: as §2

DU-4475 [28] = assay: as above
Method: as §2

BT-474 [29] = assay: as above
Method: as §2

MDA-MB-453 [30] = assay: as above
Method: as §2

MCF-10A [31] = assay: as above
Method: as §2

CAL-85-1 [32] = assay: as above
Method: as §2

MDA-MB-231 [33] = assay: as above
Method: as §2

MDA-MB-436 [34] = assay: as above
Method: as §2

BT-549 [35] = assay: as above
Method: as §2

Hs578T [36] = assay: as above
Method: as §2

Structure (SMILES)	normalised response (HCC1599 [1]) [%]	normalised response (CAL-51 [2]) [%]	normalised response (HCC1937 [3]) [%]	normalised response (CAL-120 [4]) [%]	normalised response (HDQ-P1 [5]) [%]	normalised response (MFM-223 [6]) [%]	normalised response (CAL-148 [7]) [%]	normalised response (MDA-MB-468 [8]) [%]	normalised response (HCC1143 [9]) [%]	normalised response (DU-4475 [10]) [%]	normalised response (BT-474 [11]) [%]	normalised response (MDA-MB-453 [12]) [%]	normalised response (MCF-10A [13]) [%]	normalised response (CAL-85-1 [14]) [%]	normalised response (MDA-MB-231 [15]) [%]	normalised response (MDA-MB-436 [16]) [%]	normalised response (BT-549 [17]) [%]	normalised response (Hs578T [18]) [%]	normalised response (HCC1599 [19]) [%]	normalised response (CAL-51 [20]) [%]	normalised response (HCC1937 [21]) [%]	normalised response (CAL-120 [22]) [%]	normalised response (HDQ-P1 [23]) [%]	normalised response (MFM-223 [24]) [%]	normalised response (CAL-148 [25]) [%]	normalised response (MDA-MB-468 [26]) [%]	normalised response (HCC1143 [27]) [%]	normalised response (SK-BR-3) [%]	normalised response (DU-4475 [28]) [%]	normalised response (BT-474 [29]) [%]	normalised response (MDA-MB-453 [30]) [%]	normalised response (MCF-10A [31]) [%]	normalised response (CAL-85-1 [32]) [%]	normalised response (MDA-MB-231 [33]) [%]	normalised response (MDA-MB-436 [34]) [%]	normalised response (BT-549 [35]) [%]	normalised response (Hs578T [36]) [%]
COc1ncc(-c2ccc3nccc(-c4ccnnc4)c3c2)cc1NS(=O)(=O)c1ccc(F)cc1F (10 nM)	112	104	96.1	102	89.5	96.3	91.5	68.8	107	101	93.4	102	110	81.9	106	106	106	95	83.4	77.2	78.7	75.7	60.7	82.7	96.1	80.2	85.2	53	93.1	78.3	63.3	63.7	69.5	82	84.6	72.7	77.5
C[C@@]1(C(=O)Nc2ccc(F)nc2)CCCN1c1nc(Nc2cc(C3CC3)n[nH]2)c2cccn2n1 (100 nM)	98	104	103	100	89	104	96.3	71.9	87.5	94.4	95.3	95.8	76.1	85.8	78.5	99.2	90.2	89.5	82.8	106	90.7	82.9	64.2	84.5	102	87.8	91.9	83.2	82.2	79.5	80	28.7	74.9	79.8	86.9	86.5	92.7
COc1c(C)cnc(Cn2cnc3c(Cl)nc(N)nc32)c1C [BIIB021] (100 nM)	109	122	88.4	101	109	97	62.7	108	107	103	95.7	98.5	91.5	78.5	107	82	114	107	85	82.7	82.1	85.9	81.7	82.7	88.7	81.6	97.9	45	101	106	81.4	100	90.8	109	82.6	65.9	101
CC(C)C[C@H](NC(=O)[C@H](Cc1ccccc1)NC(=O)c1cnccn1)B(O)O [Bortezomib] (10 nM)	101	110	61.9	88	75.7	82	87.2	-99.2	105	111	92	109	74.6	16.3	70.5	72.3	97.2	71	89.7	96.8	64.8	74.6	61.7	17.6	98.8	2.63	74.7	30	88.6	44.5	69.2	113	12.3	69.3	35.6	10.1	66
CS(=O)(=O)OCCCCOS(C)(=O)=O [Busulfan] (1000 nM)	103	109	107	97.8	83.3	102	96.1	121	97.8	101	100	103	59.8	101	104	90.6	96.5	105	98.9	90.4	96.2	102	103	106	107	97.2	105	110	108	98.9	111	108	104	105	94.2	109	108
C#Cc1cccc(Nc2ncnc3cc(OC)c(OCCCCCCC(=O)NO)cc23)c1 [CUDC-101] (100 nM)	103	82.4	89.5	84.2	109	103	82.4	106	111	97	97	101	101	93.8	70.3		115	73.6	105	62.1	93.4	93.3	84	78.2	95.5	74.1	90.9	84.2	96.3	91.8	60.1	65.4	78.5	90.9	96.8	105	94.7
COc1cccc2c1C(=O)c1c(O)c3c(c(O)c1C2=O)C[C@@](O)(C(C)=O)C[C@@H]3O[C@H]1C[C@H](N)[C@H](O)[C@H](C)O1 [Daunorubicin] (10 nM)	98.9	91.5	106	102	106	105	91.5	90.3	104	103	102	107	104	98.8	76	93.4	104	111	99.1	87.2	93.2	103	96.5	105	99.3	84.2	97	112	106	102	110	105	100	103	99.4	103	104
C[C@@H]1C=C2C(=O)O[C@@H]3CC[C@H](C1)[C@]23O [Galiellalactone] (500 nM)	116	115	100	103	110	96.2	99.8	126	73.3	105	99.7	104	104	93.5	114		89.4	105	101	109	107	106	103	110	120	101	109	108	103	102	105	109	100	110	101	101	104
COC1=CC(c2cc3ccccc3[nH]2)=N/C1=C\c1[nH]c(C)cc1C [Obatoclax] (100 nM)	98.6	88.2	88.3	95	53.7	93.8	103	96.5	89.8	98.6	63	104	93.4	87.6	66.7		103	84.5	93	87.8	91.3	98.1	99.6	96.3	86	88.4	93.5	90.5	99.5	88.8	104	97.3	89.2	88.4	91.4	97.5	92.6
